From patent publication US10399966B2, “Compounds for treatment of trypanosomes and neurological pathogens and uses thereof” (The University of North Carolina at Chapel Hill, priority 2016, dated 2019)
Where a name gives a salt, the structure may show the parent alone. Read-outs that look alike come from different tables or passages of the source.

Columns and labels:
[1] = system: T. b. brucei; test: In vitro antitrypanosomal activity against T. brucei (growth inhibition); type: cell-based, Trypanosoma brucei; details: Trypanosoma brucei; for EC90: read-out: T. brucei EC90
Protocol: Primary hits from the screen were further characterized using a dose-response assay format to determine the EC50. In parallel, the cytotoxicities of these compounds were determined against a proliferating human hepatoma cell line (Huh7). […] SI—CC50/EC50). The final set of confirmed T. brucei hits consisted of 1035 inhibitors. […] In vitro antitrypanosomal activities against T. b. rhodesiense (STIB9000) and cytotoxicities against L6 rat myoblast cells were measured following established protocols (Orhan et al., Mar. Drugs 8:47 (2010). […] All wells including negative controls contained a final of 0.4% DMSO. After incubation of the plates at 37° C. for 48 h, the parasite density was determined using the CellTiter-Glo reagent (Promega), a firefly luciferase assay system that measures the amount of cellular ATP present in plate wells.

[2] = Distribution between mouse plasma and brain (brain penetration, ip); type: in vivo
Protocol: For distribution of compounds between mouse plasma and brain, mice (in groups of 3) were injected with test compounds (5 mg/kg ip) and sacrificed at the indicated times for collection of plasma and brain. Compound was dissolved in 0.4 mL of dosing solution (7% Tween 80, 3% ethanol, 5% DMSO, 0.9% saline) for ip injections. The brains were weighed and immediately frozen, then later homogenized in acetonitrile using a Dounce homogenizer. Prior to animal studies, recovery of test compound was carried out by adding a known amount to a mouse brain in the test extraction solvent and performing the homogenization. Compound recovery was determined by liquid chromatography/tandem mass spectrometry analysis relative to a standard compound amount. Blood was taken from the same mice in heparinized capillary tubes (Fisherbrand) for determination of compound concentration in plasma. The concentration of compound in the brain was obtained by dividing the moles of compound in the brain by the brain volume (obtained from the brain weight assuming 1 g is 1 mL) and correcting for the brain vasculature volume of 2.5% by weight.
Brain penetration studies (Table 14) were initially performed upon compounds 1, 2, and 3, but were expanded to include other compounds in order to explore the SAR of brain penetration. Groups of three mice were given single 5 mg/kg ip doses of the test compounds and were sacrificed 1 h post-dose.

[3] = system: Trypanosoma cruzi; test: Efficacy against T. cruzi in vitro; type: cell-based; details: Trypanosoma cruzi; Table 16; read-out: T. Cruzi EC50
[4] = Table 9, read-out: T. brucei EC50
[5] = Table 14, mice, single ip dose 5 mg/kg, one hour post-dose, ± SEM of 3 mice (compound 3: 6 mice)
[6] = Table 16, read-out: T. b. brucei EC50

| Structure (SMILES) | EC50 [1, 4] [nM] | EC90 ([1]; Table 9) [nM] | EC50 [1, 6] [nM] | EC50 [3] [nM] | other results |
| --- | --- | --- | --- | --- | --- |
| O=C(Nc1ccc2oc(-c3ccccc3)nc2c1)N1CCCC1 [Compound 8, 2-Phenyl-5-N-pyrrolidylamidobenzoxazole] | 5250 | > 10000 |  |  | EC50 ([1]; Table 7, read-out: T. brucei EC50): 5250 nM; Brain/plasma ratio ([2]; Table 14, mice, single ip dose 5 mg/kg, one hour post-dose): 1.58 ± 0.484; [compound]Brain [2, 5]: 0.397 ± 0.077 µM; [compound]Plasma [2, 5]: 0.270 ± 0.036 µM; Kp at 1 h ([2]; mouse, brain and plasma, intraperitoneal, 5 mg/kg, Table 7, groups of 3 mice, read-out: Average brain/plasma ratio): 1.58 ± 0.839; concentration at 1 h ([2]; mouse, brain, intraperitoneal, 5 mg/kg, Table 7, groups of 3 mice, read-out: Average [compound] brain): 397 ± 130 nM; concentration at 1 h ([2]; mouse, plasma, intraperitoneal, 5 mg/kg, Table 7, groups of 3 mice, read-out: Average [compound] plasma): 270 ± 62 nM |
| O=C(Nc1ccc2[nH]c(-c3ccccc3)nc2c1)c1ccccc1 [Compound 14, 5-Benzamido-2-phenylbenzimidazole hydrochloride] |  |  |  |  | EC50 ([1]; read-out: T. brucei EC50): > 10000 nM; EC90 [1]: > 10000 nM |
| O=C(Nc1ccc2sc(-c3ccccc3)nc2c1)c1ccsc1 [Compound 19, 2-Phenyl-5-(3-thienylamido)benzothiazole] | 1570 | 2490 |  |  |  |
| O=C(Nc1ccc2sc(-c3ccccc3)nc2c1)c1nccs1 [Compound 20, N-(2-Phenylbenzo[d]thiazol-5-yl)thiazole-2-carboxamide] | 5860 | > 10000 |  |  |  |
| O=C(Nc1ccc2sc(-c3ccccc3)nc2c1)c1cscn1 [Compound 21, N-(2-Phenylbenzo[d]thiazol-5-yl)thiazole-4-carboxamide] | > 10000 | > 10000 |  |  |  |
| O=C(Nc1ccc2sc(-c3cccc(F)c3)nc2c1)N1CCN(C(=O)Nc2ccc3sc(-c4cccc(F)c4)nc3c2)CC1 [Compound 31, N^1,N^4-Bis(2-(3-fluorophenyl)benzothiazol-5-yl)piperazine-1,4-dicarboxamide] | > 20000 | > 20000 |  |  |  |
| NC1CCN(C(=O)Nc2ccc3sc(-c4ccc(F)c(F)c4)nc3c2)C1 (centres unmarked) [Compound 37, 2-(3,4-Difluorophenyl)-5-(3-amino-N-pyrrolidylamido)benzothiazole] | 2320 | 2720 |  |  |  |
| O=C(Nc1ccn2cc(-c3ccc(F)c(F)c3)nc2c1)N1CC[C@H](F)C1 [Compound 41, (3S)-N-[2-(3,4-difluorophenyl)imidazo[1,2-a]pyridin-7-yl]-3-fluoropyrrolidine-1-carboxamide] |  |  | 160 | 390 |  |
| O=C(Nc1ccn2cc(-c3ccc(F)c(F)c3)nc2c1)N1CCCC1 [Compound 42, N-[2-(3,4-difluorophenyl)imidazo[1,2-a]pyridin-7-yl]pyrrolidine-1-carboxamide] |  |  | 320 | 2240 |  |
| O=C(Nc1ccn2cc(-c3ccc(F)c(F)c3)nc2c1)N1CCCCC1 [Compound 43, N-[2-(3,4-difluorophenyl)imidazo[1,2-a]pyridin-7-yl]piperidine-1-carboxamide] |  |  | 1200 | 2840 |  |
| O=C(Nc1ccn2cc(-c3cccc(F)c3F)nc2c1)N1CC[C@H](F)C1 [Compound 44, (3S)-N-[2-(2,3-difluorophenyl)imidazo[1,2-a]pyridin-7-yl]-3-fluoropyrrolidine-1-carboxamide] |  |  | 180 | 940 |  |
| O=C(Nc1ccn2cc(-c3cccc(F)c3F)nc2c1)N1CCCC1 [Compound 45, N-[2-(2,3-difluorophenyl)imidazo[1,2-a]pyridin-7-yl]pyrrolidine-1-carboxamide] |  |  | 580 | 1020 |  |
| O=C(Nc1ccn2cc(-c3cccc(F)c3F)nc2c1)N1CCCCC1 [Compound 46, N-[2-(2,3-difluorophenyl)imidazo[1,2-a]pyridin-7-yl]piperidine-1-carboxamide] |  |  | 720 | 1000 |  |
| O=C(Nc1ccn2cc(-c3cccc(F)c3)nc2c1)N1CC[C@H](F)C1 [Compound 47, (3S)-3-fluoro-N-[2-(3-fluorophenyl)imidazo[1,2-a]pyridin-7-yl]pyrrolidine-1-carboxamide] |  |  | 160 | 710 |  |
